Measurements: PubChem BioAssay (NCI)
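Five compound concentrations were applied to cells in 96-well plates for 48 hours; endpoints were derived by simple linear interpolation of the resulting dose-response curve. GI50: concentration for 50% inhibition of growth. TGI denotes the concentration required for complete inhibition of growth.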

What was measured:
Assay in all cases: NCI anticancer screen, dose series, 48 h
HCC-2998 colon = system: HCC-2998 colon
HOP-62 NSCLC = system: HOP-62 NSCLC
IGROV1 ovarian = system: IGROV1 ovarian
K-562 leukemia = system: K-562 leukemia
LOX IMVI melanoma = system: LOX IMVI melanoma
NCI/ADR-RES ovarian = system: NCI/ADR-RES ovarian
OVCAR-4 ovarian = system: OVCAR-4 ovarian
SF-539 CNS = system: SF-539 CNS
SK-MEL-2 melanoma = system: SK-MEL-2 melanoma
UACC-257 melanoma = system: UACC-257 melanoma

| SMILES | GI50 (HCC-2998 colon) [µM] | TGI (HCC-2998 colon) [µM] | GI50 (HOP-62 NSCLC) [µM] | TGI (HOP-62 NSCLC) [µM] | GI50 (IGROV1 ovarian) [µM] | TGI (IGROV1 ovarian) [µM] | GI50 (K-562 leukemia) [µM] | GI50 (LOX IMVI melanoma) [µM] | TGI (LOX IMVI melanoma) [µM] | GI50 (NCI/ADR-RES ovarian) [µM] | TGI (NCI/ADR-RES ovarian) [µM] | GI50 (OVCAR-4 ovarian) [µM] | TGI (OVCAR-4 ovarian) [µM] | GI50 (SF-539 CNS) [µM] | TGI (SF-539 CNS) [µM] | GI50 (SK-MEL-2 melanoma) [µM] | TGI (SK-MEL-2 melanoma) [µM] | GI50 (UACC-257 melanoma) [µM] | TGI (UACC-257 melanoma) [µM] | TGI (K-562 leukemia) [µM] |
| --- | --- | --- | --- | --- | --- | --- | --- | --- | --- | --- | --- | --- | --- | --- | --- | --- | --- | --- | --- | --- |
| Nc1n[nH]c2ccc([C@H]3[C@@H]4C5CCC(C5)[C@@H]4c4c(ccc5[nH]ncc45)N3S(=O)(=O)C3CC3)cc12 (some centres undefined) | 0.199 | 8.42 | 0.335 | 20.7 | 0.269 | > 38.7 | 0.115 | 0.303 | 6.45 | 0.231 | > 50 | 2.63 | > 50 | 0.135 | 0.484 | 0.343 | 14.5 | 8.04 | > 47.5 | – |
| NS(=O)(=O)c1ccc(N=Nc2c(O)[nH]c3cccc(CCc4ccncc4)c23)cc1 | > 25 | > 25 | > 25 | > 25 | > 25 | > 25 | > 25 | > 25 | > 25 | > 25 | > 25 | > 25 | > 25 | > 25 | > 25 | > 25 | > 25 | > 25 | > 25 | > 25 |
| Cc1cccc2c1NC(=O)[C@@H](NC(=O)[C@H](CCC(F)(F)F)[C@H](CCC(F)(F)F)C(N)=O)N=C2c1cccc(F)c1 | 60 | > 100 | 25.8 | 92.1 | 27.7 | > 100 | > 100 | 64.8 | > 100 | 26.3 | > 100 | 22.4 | 61.9 | 18.4 | 41.8 | 41.5 | > 100 | 48.6 | > 100 | > 100 |
| COc1ccc2c(c1)OC(N)=C(C#N)C2c1ccc(F)c(F)c1 (centres undefined) | 2.5 | > 44.9 | 0.515 | > 92.2 | 0.715 | > 100 | 0.257 | 0.589 | > 100 | 0.351 | 10.7 | 2.33 | > 100 | 0.271 | 1.05 | 0.343 | > 93.7 | 0.408 | > 100 | > 100 |
| CCCC(c1cc(C(C)(C)C)c(O)cc1C)c1cc(C(C)(C)C)c(O)cc1C | – | 3.3 | – | 8 | – | 14.6 | – | – | 3.43 | – | 12.1 | – | 19.4 | – | 4.7 | – | 7.22 | – | 5.69 | 6.43 |
| COc1cc2cc(Oc3ccc(NC(=O)Nc4ccc(F)c(C(F)(F)F)c4)cc3)c(C)nc2cc1OCCN1CCOCC1 | 5.34 | 16.7 | 3.99 | 20.5 | 2.69 | 19.5 | 0.88 | 1.44 | 2.86 | 2.56 | 12.1 | 0.706 | 5.23 | 1.77 | 3.44 | 2.38 | 7.58 | 1.75 | 5.17 | 10.3 |
